# Results taken from patent US20090005395A1 (Solvay Pharmaceuticals, B.V., priority 2007, published 2009).
# Where two headings read alike, the source gives them in different places.
# Legend:
# PDE-III = PDE-III (Homo sapiens, UniProt Q14432); experiment: In vitro inhibition of phosphodiesterases (CEREP): PDE-III
# [1] = Plasma pharmacokinetics of sildenafil and its N-oxide; assay type: in vivo; conditions: male, NMRI, mouse, mice; for Kp: brain, read-out: Brain/plasma ratio; for AUC: read-out: AUC0→end; for AUC(0-inf): Tend = ∞
# Experimental: Liquid Chromatography-Tandem Mass Spectrometry (LC-MS/MS) was performed using a Sciex API4000 LC-MS/MS. […] Compound peak area was used for quantification. The calibration curves were fitted to the model y=A+Bx+Cx^2 (y is the peak area of the analyte, x is the nominal calibration level in ng/ml (plasma) or ng/g (brain), A is the intercept, B is the slope and C is the description of the curvature). 1/x^2 weighing was used. LC-MS/MS system performance was monitored using a reference solution injected at standard intervals. […] The Lower Limit Of Quantification (LLOQ) was established at 1.00 ng/ml and 5.00 ng/brain, for plasma and brain samples, respectively. Reversed phase HPLC was performed using gradient elution by a Hypersil BDS C18 100×4.6 mm 3 μm analytical column, with a temperature of 45° C. and a flow of 1.00 ml/min: […]
# [2] = Reduction of sildenafil N-oxide in the human colon model TIM2; assay type: in vitro ADME
# Experimental: The human colon model TIM2 (TNO Intestinal Model 2) is a dynamic model for the human large intestine that simulates in vivo conditions. It is an artificial digestive system that has been validated by many studies (Minekus, 1999).
# Suspended in 1% methylcellulose, sildenafil-N-oxide (1 mg) was inserted into the lumen (120 ml) of the TIM2 model (see above, Minekus, 1999). Samples from the lumen and the dialysate (the latter being a model for the vascular bed of the intestines) were taken at various time intervals, and analyzed for sildenafil-N-oxide and sildenafil.
# [3] = TIM2, 1 mg in 1% methylcellulose into lumen (120 ml), 0 h
# [4] = TIM2, 1 mg into lumen (120 ml), 2 h
# [5] = TIM2, 1 mg into lumen (120 ml), 4 h
# [6] = TIM2, 1 mg into lumen (120 ml), 6 h
# [7] = TIM2, 1 mg into lumen (120 ml), 8 h
# [8] = TIM2, 1 mg into lumen (120 ml), 24 h
# PDE-III, sequence (Q14432 674-1093 limits assumed): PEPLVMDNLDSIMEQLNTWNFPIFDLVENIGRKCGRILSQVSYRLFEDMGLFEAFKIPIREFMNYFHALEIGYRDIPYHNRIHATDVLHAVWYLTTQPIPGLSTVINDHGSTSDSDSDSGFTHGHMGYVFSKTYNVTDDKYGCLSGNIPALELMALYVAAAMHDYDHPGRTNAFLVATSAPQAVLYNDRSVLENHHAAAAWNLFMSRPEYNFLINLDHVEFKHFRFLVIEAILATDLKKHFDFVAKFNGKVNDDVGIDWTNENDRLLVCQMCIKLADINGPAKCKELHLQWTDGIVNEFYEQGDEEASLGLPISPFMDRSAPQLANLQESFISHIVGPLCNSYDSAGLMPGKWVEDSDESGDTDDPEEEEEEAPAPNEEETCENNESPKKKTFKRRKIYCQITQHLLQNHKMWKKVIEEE
structure (smiles),measurement,setting,value
"CCCc1nn(C)c2c(=O)[nH]c(-c3cc(S(=O)(=O)N4CC[N+](C)([O-])CC4)ccc3OCC)nc12 [Sildenafil-N-oxide, 1-[[3-(6,7-dihydro-1-methyl-7-oxo-3-propyl-1H-pyrazolo[4,3-d]pyrimidin-5-yl)-4-ethoxyphenyl]sulfonyl]-4-methyl-4-oxido-piperazine]",IC50,PDE-III,> 10 µM
same,Kp,"[1]; iv, i.v. 1 mg/kg",0.5
same,Kp,"[1]; po, p.o. 10 mg/kg",2.5
same,Tmax,"[1]; iv, plasma, i.v. 1 mg/kg",0 h
same,half-life,"[1]; iv, plasma, i.v. 1 mg/kg",0.4 h
same,AUC,"[1]; iv, plasma, i.v. 1 mg/kg, Tend = 3 hrs",125 ng·h/mL
same,AUC(0-inf),"[1]; iv, plasma, i.v. 1 mg/kg",125 ng·h/mL
same,Cmax,"[1]; iv, plasma, i.v. 1 mg/kg, extrapolated to T0 (time zero), read-out: Cmax (C0)",495 ng/mL
same,Vd,"[1]; plasma, iv, i.v. 1 mg/kg",5 L/kg
same,clearance,"[1]; plasma, iv, i.v. 1 mg/kg",133 mL/min/kg
same,bioavailability,"[1]; plasma, po, 10 mg/kg, i.v.",1.5%
same,Tmax,"[1]; po, plasma, p.o. 10 mg/kg",1 h
same,half-life,"[1]; po, plasma, p.o. 10 mg/kg",5.1 h
same,AUC,"[1]; po, plasma, p.o. 10 mg/kg, Tend = 24 hrs",10.8 ng·h/mL
same,AUC(0-inf),"[1]; po, plasma, p.o. 10 mg/kg",18.8 ng·h/mL
same,Cmax,"[1]; po, plasma, p.o. 10 mg/kg, read-out: Cmax",2.7 ng/mL
same,Sildenafil-N-oxide Dialysate concentration,[2]; [3],<1.0 ng/mL
same,Sildenafil-N-oxide Lumen concentration,[2]; [3],<1.0 ng/mL
same,Sildenafil-N-oxide Dialysate concentration,[2]; [4],33 ng/mL
same,Sildenafil-N-oxide Lumen concentration,[2]; [4],6.6 ng/mL
same,Sildenafil-N-oxide Dialysate concentration,[2]; [5],<1.0 ng/mL
same,Sildenafil-N-oxide Lumen concentration,[2]; [5],4.7 ng/mL
same,Sildenafil-N-oxide Dialysate concentration,[2]; [6],<1.0 ng/mL
same,Sildenafil-N-oxide Lumen concentration,[2]; [6],4.9 ng/mL
same,Sildenafil-N-oxide Dialysate concentration,[2]; [7],<1.0 ng/mL
same,Sildenafil-N-oxide Lumen concentration,[2]; [7],6.7 ng/mL
same,Sildenafil-N-oxide Dialysate concentration,[2]; [8],<1.0 ng/mL
same,Sildenafil-N-oxide Lumen concentration,[2]; [8],2.7 ng/mL
same,reduction to sildenafil in TIM2,[2]; within 2 hours after dosing,nearly quantitatively reduced to sildenafil
